Measured values as given in US4614807A, “6,7-dihalomelatonins” (Eli Lilly and Company, priority 1984, dated 1986).
Like-named read-outs stand apart in the source and are kept apart here.

Columns and labels:
[1] = test system: ovulation; test: inhibition of ovulation, test compound given orally on the day of proestrus; absence of ova in oviduct; type: in vivo; conditions: oral, rat
Method: The compounds of the invention are ovulation inhibitors, with a longer duration of action than the monochloromelatonins. The degree of ovulation inhibitory activity was determined according to the following protocol.
Adult female rats with regular estrus cycles of four days each are employed. The estrus cycle consists of 2 days of diestrus followed by a day of proestrus and then a day of estrus. […] On the afternoon of proestrus, luteinizing hormone (LH) is released into the blood by the pituitary gland. The LH travels to the ovary where it induces ovulation, resulting in the presence of eggs in the oviduct on the day of estrus.
The test compound is administered orally at predetermined times on the day of proestrus. The rat is sacrificed on the following day (estrus). The oviduct is removed and examined microscopically for the presence of ova.
In the Table, column 1 gives the name of the compound, column 2 the time of administration and column 3 the percent inhibition of ovulation.

[2] = test system: ovulation; conditions: in vivo; cited from earlier work
[3] = test system: estrous phase of the estrous cycle and ovulation; conditions: rats; cited from earlier work
[4] = test system: estrous phase of the estrous cycle and ovulation; conditions: mice; cited from earlier work
[5] = time of administration 10:00 a.m.

SMILES: COc1cc2c(CCNC(C)=O)c[nH]c2cc1Cl [6-chloromelatonin]
- Percent Inhibition of ovulation [1, 5]: 0%
- ovulation blocking activity [2]: increased ovulation blocking activity

SMILES: COc1cc2c(CC(C)NC(C)=O)c[nH]c2cc1Cl (stereo not drawn) [α-methyl-6-chloromelatonin]
- effect of α-methyl substitution on ovulation-blocking activity [2]: no significant effect

SMILES: COc1ccc2[nH]cc(CCNC(C)=O)c2c1 [melatonin, N-[2-(5-methoxy-3-indolyl)ethyl]acetamide]
- inhibition of estrous phase of the estrous cycle [3]: inhibited
- inhibition of ovulation [3]: inhibited
- inhibition of estrous phase of the estrous cycle [4]: inhibited
- inhibition of ovulation [4]: inhibited

SMILES: COc1cc2c(CCNC(C)=O)c[nH]c2cc1F [6-fluoromelatonin]
- ovulation blocking activity [2]: increased ovulation blocking activity

SMILES: COc1cc2c(CCNC(C)=O)c[nH]c2c(Cl)c1Cl [6,7-dichloromelatonin, N-acetyl-5-methoxy-6,7-dichlorotryptamine]
- Percent Inhibition of ovulation [1, 5]: 100%

SMILES: COc1cc2c(CCNC(C)=O)c(C)[nH]c2c(Cl)c1Cl [2-methyl-6,7-dichloromelatonin]
- Percent Inhibition of ovulation ([1]; time of administration 8:00 a.m.): 100%
